This note sets out measurements from PubChem BioAssay AID493102 (Broad Institute, 2011).

The subject of this assay is SK-MEL-5 TRPM1-promoter luciferase reporter, 24 h. Description: reducers of TRPM1 reporter luminescence, concentration series – cell-based, SK-MEL-5, cherry-picked, set 4, MITF inhibitor project, dose response (AID 493102).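 Note: actives lower the luciferase signal so the potency reflects inhibition of reporter expression.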

On to `CC(=O)c1cccc(NC(=O)/C=C/c2ccc([N+](=O)[O-])s2)c1`, for which the AC50 is 7.16 µM.
With `COC(=O)c1ccc(-n2c(C)cc(C(=O)CCl)c2C)cc1` the figure was 7.46 µM; with `O=C(N/N=C/c1ccc(O)c2ncccc12)c1cccc(Br)c1`, 7.28 µM.
With `O=C(Nc1ccc(-c2nc3ncccc3o2)cc1)c1ccc([N+](=O)[O-])o1` the figure was 3.63 µM; with `Cn1cc(C(=O)N/N=C/c2c(O)ccc3ccccc23)ccc1=O`, 2.55 µM; with `CC(=O)N(C1CC(C)C(C#N)(C#N)C1(C#N)C#N)N(C)C` (stereo not drawn), 9.24 µM.
The same measure for `COc1cc(/C=C/C(=O)c2ccc3c(c2)OCCO3)cc(Br)c1OCC(=O)N(C)C`: 6.17 µM; for `CC(C)[C@H](NC(=O)OC(C)(C)C)c1nnc(S(=O)(=O)Cc2c(F)cccc2Cl)o1`: 11.6 µM; for `COc1ccc(NC(=O)CCC(=O)N/N=C/c2ccc([N+](=O)[O-])s2)cc1`: 7.62 µM.
In the case of `C[C@H]1CCC[C@]2(C)C[C@H]3OC(=O)C(CN4CCCCCC4)[C@H]3C=C12` (stereo partly drawn), the half-maximal activity concentration (AC50) was 13.9 µM.
With `CC(Oc1cccc(Br)c1)C(=O)NNC(=O)c1ccccn1` (stereo not drawn), the AC50 is 7.18 µM.
The same measure for `COc1ccc(Cn2c(-c3ccc(C)cc3)c[n+]3ccccc23)cc1`: 2.89 µM; for `Clc1ccc(-c2c[n+](Cc3cccc(Cl)c3)c3n2CCC3)cc1`: 8.77 µM.
The same measure for `COc1ccc(O)c(/C=N/NC(=O)c2ccc(CSc3nc(C)cc(C)n3)cc2)c1`: 9.31 µM; for `Cc1cc(C)c2ccc(N)nc2c1O`: 9.58 µM; for `O=[N+]([O-])/C=C\c1ccc(N2CCCC2)c(F)c1`: 13.4 µM.
With `Cc1ccccc1-n1ncc2c([N+](=O)[O-])cc([N+](=O)[O-])cc21` the figure was 8.7 µM.
As to `CCCCn1c(=O)[nH]c(=O)c2c1nc(Cn1ncc(Cl)c(Cl)c1=O)n2CCC`, the half-maximal activity concentration (AC50) is 8.12 µM.
With `CCOc1ccc(-n2c(-c3ccc(OC)cc3)c[n+]3c2CCCCC3)cc1` the figure was 2.13 µM; with `Cc1ccc(NC(=O)CN(C)C(=O)Cn2ncc(Cl)c(Cl)c2=O)cc1`, 9.16 µM; with `Cn1nnnc1Sc1ncnc2scc(-c3ccc(F)cc3)c12`, 8.1 µM.
With `Cc1ccc(C(C)C)c(OCc2nn(CC(=O)c3ccc(OC(F)F)cc3)c3[n+]2CCCCC3)c1` the figure was 9.17 µM; with `COc1cc([N+](=O)[O-])cc(/C=N/NC(=O)c2ccc(NC(=O)c3ccc(C)cc3)cc2)c1O`, 1.55 µM.
The same measure for `CCc1ccc(N2C(=O)NC(=O)/C(=C\C=C\c3ccco3)C2=O)cc1`: 7.53 µM; for `O=[N+]([O-])c1cccc2c(N3CCCC3)ccnc12`: 2.47 µM; for `CCOC(=O)c1ccc(NC(=O)c2ccc(C)c(S(=O)(=O)N3CCOCC3)c2)cc1`: 5.36 µM.
In the case of `CN(C)CCCNC(=O)/C(=C\c1ccc(-c2ccc(Br)cc2)o1)NC(=O)c1ccccc1`, the AC50 was 7.51 µM.
For the compound `CC1CCC/C=C/C(=O)c2c(O)cc(O)cc2CC(=O)O1` (stereo not drawn), the AC50 was 5.79 µM.
With `COc1ccc(C(CCNC(C)c2ccccc2)c2ccc(F)cc2)cc1` (stereo not drawn) the figure was 16.6 µM.
With `Cc1ccc(-c2cc(-c3ccc(C)cc3)[n+](C)o2)cc1` the figure was 8.24 µM.
The same measure for `CN(Cc1ccccc1)C1=CC(=[N+]2CCCC2)CC(C)(C)C1`: 1.55 µM.
Regarding `C=CCSC(=S)NC1CCS(=O)(=O)C1` (stereo not drawn), the AC50 was 20.7 µM.
The same measure for `O=C(Nc1nc2cc3c(cc2s1)OCO3)C1=COCCO1`: 3.77 µM.
The same measure for `CC(C)Oc1ccc(C(CCN)C2CCCCC2)cc1` (stereo not drawn): 9.99 µM.
Take `Cc1ccc(-c2cn3nc(C)c(C)nc3n2)cc1`: the concentration at half-maximal activity (AC50) is 5.3 µM.
The same measure for `Nc1ccc(-c2cc3ccccc3c(=O)o2)cc1`: 0.293 µM.
The same measure for `O=C(NC1=C(Nc2ccc(Cl)cc2)C(=O)c2ccccc2C1=O)c1ccccc1`: 0.93 µM; for `Cc1ccc2nc(NC(=O)CCCC(=O)O)sc2c1`: 12.1 µM.
The same measure for `CC(=O)Nc1ccc(Nc2c3ccccc3nc3ccccc23)cc1`: 4.9 µM; for `NCCN1C(=O)S/C(=C\c2ccc3c(c2)OCO3)C1=O`: 22.3 µM.
Turning to `Cc1ccc(C(=O)N/C(=C\c2ccc(-c3ccccc3[N+](=O)[O-])o2)C(=O)NCCCN(C)C)cc1`, the concentration at half-maximal activity (AC50) was 3.28 µM.
Turning to `Nc1ccc(-c2nc3c(Cl)cc(N)cc3[nH]2)cc1`, the half-maximal activity concentration (AC50) was 3.76 µM.
The same measure for `C=CCNC1=C(Cl)C(=O)c2ccccc2C1=O`: 4.06 µM; for `O=C1Nc2ccc(Br)cc2/C1=C/C(=O)c1ccc2c(c1)OCO2`: 25.5 µM.
On to `CCCN(CC(=O)Nc1ccccc1C)C(=O)CCl`, for which the AC50 was 4.04 µM.
The same measure for `O=[N+]([O-])c1cc(CN2CCN(c3ccccc3)CC2)c(O)c2ncccc12`: 8.3 µM; for `CC(=O)Nc1ccc(S(=O)(=O)NC2=C(N3CCN(C)CC3)C(=O)c3ccccc3C2=O)cc1`: 3.65 µM; for `COc1ccc(-c2cc(-c3ccccc3)[n+](C)c(-c3ccccc3)c2)cc1`: 3.2 µM.
Regarding `CC(C)c1ccc(/C=N/Nc2ccc(C(=O)O)cc2)cc1`, the AC50 was 3.53 µM.
The same measure for `CN(C)c1ccc(NC(=S)c2ccccn2)cc1`: 2.84 µM.
On to `CCNC1=C(Cl)C(=O)c2ccccc2C1=O`, for which the AC50 was 3.84 µM.
The same measure for `CN1CCN(c2ccccc2NC(=O)c2ccc([N+](=O)[O-])o2)CC1`: 4.95 µM.
With `CC1CN(N=Cc2ccc([N+](=O)[O-])o2)C(=N)O1` (stereo not drawn) the figure was 24.1 µM; with `O=C(Nc1ccccc1N1CCOCC1)c1ccc([N+](=O)[O-])s1`, 12.3 µM.
With `O=C(NCC1CCCCC1)C1(CC2CC(c3cccc(Br)c3)=NO2)CCNCC1` (stereo not drawn) the figure was 18.1 µM; with `O=C(c1ccc([N+](=O)[O-])s1)N1CCN(c2ccccn2)CC1`, 12.2 µM.
For `CC(=O)c1ccc(S(=O)(=O)N2CCN(C(=O)/C=C/c3ccc4ccccc4n3)CC2)cc1`, the concentration at half-maximal activity (AC50) was 12 µM.
Regarding `Cn1c(=O)c([N+](=O)[O-])c(-n2ccnc2)c2ccccc21`, the AC50 is 6.6 µM.
On to `N#CC1=C(c2ccccc2)/C(=C/c2ccccc2)OC1=O`, for which the AC50 was 4.25 µM.
With `CCOc1c(Br)cc(CNC2CCCCCCC2)cc1OC` the figure was 20.5 µM; with `CC(=O)Nc1sc(C)c(C)c1C(=O)OCC(=O)N(CC(C)C)c1c(N)n(Cc2ccccc2)c(=O)[nH]c1=O`, 5.29 µM.
With `Cc1oc(-c2ccc(Cl)cc2)nc1CN1CCC(C(=O)NCCCN2CCCC(C)C2)CC1` (stereo not drawn) the figure was 13.2 µM; with `O=C(CCl)N1CCN(S(=O)(=O)c2ccc3c(c2)CCC3)CC1`, 20.8 µM; with `CCCCN(C)CC(O)Cn1cc(/C=C/C(=O)c2cccs2)c2ccccc21` (stereo not drawn), 14.3 µM.
The same measure for `CCN1CCCC1CNC(=O)c1ccc2c(c1)NC(=O)/C(=C\c1ccc(OC)c(OC)c1)S2` (stereo not drawn): 13.8 µM.
As to `Cc1ccc2sc(N(CCCN(C)C)C(=O)c3ccc(S(=O)(=O)N(C)C4CCCCC4)cc3)nc2c1C`, the AC50 is 18 µM.
`O=C(/C=C\Nc1ccc2c(c1)OCO2)c1ccccn1`: the concentration at half-maximal activity (AC50) was 2.08 µM.
Take `COc1ccc2oc(C(=O)Nc3ccc(S(=O)(=O)N(C)C4CCN(C)CC4)cc3)c(C)c2c1`: the concentration at half-maximal activity (AC50) was 13 µM.
The same measure for `COc1ccc(-c2cc(-c3ccccc3)c(C#N)c(S(C)=O)n2)cc1` (stereo not drawn): 11.8 µM; for `CC1(C)CC(NC(=O)c2ccc(Cl)c(S(=O)(=O)N(Cc3ccccc3)c3ccccc3)c2)CC(C)(C)N1`: 10.3 µM.
`COc1cccc(/C=C2/Sc3ccc(C(=O)NCCN4CCCC4)cc3NC2=O)c1`: the AC50 was 17.9 µM.
Take `CCn1c(=O)c([N+](=O)[O-])c(Cl)c2ccccc21`: the AC50 was 7.2 µM.
With `Cn1nc([N+](=O)[O-])nc1S(C)(=O)=O` the figure was 9.2 µM; with `CC(=O)OCCNc1cc(Sc2nc3ccccc3[nH]2)c2nonc2c1[N+](=O)[O-]`, 11.5 µM; with `COc1ccc(N(C(=O)CCl)C(C(=O)NC2CCCCC2)c2cccnc2)cc1` (stereo not drawn), 5.87 µM.
The same measure for `Cc1cc(C)cc(NC(=O)c2ccc([N+](=O)[O-])o2)c1`: 16.6 µM; for `Cc1cc(C(=O)CSc2nnc3ccccn23)c(C)n1-c1ccccc1`: 2.08 µM; for `CN(C)CC1CC/C(=C\c2ccc(O)cc2)C1=O` (stereo not drawn): 12.9 µM.
Regarding `COC(=O)c1ccc(/C=C(\C#N)C(=O)NC(C)c2ccccc2)cc1` (stereo not drawn), the AC50 is 10.7 µM.
With `Oc1c(CN2CCCCC2)cc(COCc2ccccc2)c2cccnc12` the figure was 2.17 µM; with `C/C(=N\NC(=O)COc1ccccc1-c1ccccc1)c1ccccn1`, 4.58 µM.
On to `O=C(Nc1ccc2nc3n(c(=O)c2c1)CCCC3)c1cc([N+](=O)[O-])ccc1F`, for which the AC50 is 11.5 µM.
The same measure for `N/C(=N\OC(=O)c1ccccc1)c1ccccn1`: 11.9 µM; for `CC(C)Oc1ccc(C(CCNCc2ccc(O)cc2)c2ccccc2)cc1` (stereo not drawn): 12.8 µM.
In the case of `COc1cccc(C(=O)N/N=C(/c2ccccc2)c2ccccn2)c1`, the AC50 is 5.8 µM.
With `O=C1NC(=O)N(Cc2ccccc2)C(=O)/C1=C\C=C\c1ccco1` the figure was 6.29 µM.
Take `CCc1ccccc1NC(=O)CN(C)C(=O)Cn1ncc(Cl)c(Cl)c1=O`: the AC50 was 11 µM.
With `O=C1c2cc(F)ccc2-n2c1nc1ccccc1c2=O` the figure was 1.05 µM.
The same measure for `CN(Cc1ccccc1)C1=CC(=[N+]2CCCCC2)CC(C)(C)C1`: 2.46 µM; for `O=C(CCl)Nc1cccc(S(=O)(=O)N2CCCCCC2)c1`: 11.8 µM.
For `O=C1/C(=C/c2ccccc2[N+](=O)[O-])COc2ccccc21`, the AC50 is 9.8 µM.
The same measure for `O=C(/C=C/c1cccc([N+](=O)[O-])c1)n1cnc2ccccc21`: 4.39 µM; for `Nc1nc2ccccc2n1/N=C/c1ccc([N+](=O)[O-])s1`: 2.81 µM.
Turning to `COC(=O)c1ccc(Nc2cc(C)nc3ccc(C)cc23)cc1`, the AC50 was 6.85 µM.
With `Cc1[nH]nc2nc(SCC(=O)NCCC3=CCCCC3)n(-c3ccc(Br)cc3)c(=N)c12` the figure was 2.46 µM.
With `COc1cc2c(c(OC)c1OC)-c1ccc(N(C)CC(OC)OC)c(=O)cc1[C@@H](NC(C)=O)CC2` the figure was 2.04 µM; with `CC(=O)Oc1c(C(=O)c2nnc(C)o2)c(=O)n(Cc2ccccc2)c2ccccc12`, 6.98 µM; with `CCOc1ccc(-n2c(-c3ccc(Br)cc3)c[n+]3c2CCCCC3)cc1`, 3.87 µM.

By AC50 is commonly meant the midpoint of the concentration-response curve, whichever way the signal moves.
